Source: patent publication US10064843B2, “Bis-amide derivative and use thereof” (University-Industry Cooperation Group of Kyung Hee …, priority 2013, dated 2018)
Where two headings read alike, the source gives them in different places.

Legend:
CypA [1] = target: T1, CypA (Homo sapiens, UniProt P62937); assay: SPR binding of WJCPA-126 or CsA to CypA
T1 construct: GST (N, cleaved yes); made in house; host or cells: E. coli (pGEX-KG)
Method: Example 4: Molecular Docking Analysis by Surface Plasmon Resonance (SPR)
CypA protein was fixed on the sensor chip surface via free amine coupling by injecting a mixture of 0.1 M 1-ethyl-3-(3-dimethylaminopropyl) carboimidehydrochloride and 0.05 M N-hydroxysuccinimide thereon, and the extra activated carboxylic acid was inhibited using 1M ethanolamine (pH 8.5). The second reference cell was treated similarly while excluding the target protein. All working peptide dilutions were prepared in running buffer (PBS containing 0.2% DMSO) and injected at a rate of 30 μL/min for 3 minutes (association time) and dissociation phase was performed for 3 minutes. Nonspecific background was substracted from each sensogram using SPR_V4017 data collection and alignment program (Reichert, Depew, N.Y.). […] Optimum kinetic parameters were obtained by global fitting analysis using Scrubber2 (Biologic Software, Australia).

CypB = target: T2, CypB (Homo sapiens, UniProt P23284); assay: SPR binding of WJCPA-126 to CypB; details: SPR-based kinetic analysis
T2 construct: GST (N); made in house; host or cells: E. coli (pGEX-KG)

HCV replicon cells = assay: Western blot of NS5A and NS5B in HCV replicon cells (total lysate, membrane fraction); type: cell-based, hepatitis C virus
Method: Example 10: Preparation of a Membrane Fraction
Cells grown to about 80% confluence in a culture dish with a diameter of 10 cm were scraped using PBS. The cells were pelleted by centrifugation at 220 g for 10 minutes. The pellet was resuspended in 1 mL hypotonic buffer (10 mM Tris-HCL pH 7.5, 10 mM KCL, 1.5 mM MgCl2, 0.5 mM PMSF (phenylmethylsulfonyl fluoride), and 2 μg/mL leupeptin), and incubated at 4° C. for 10 minutes. The suspension was homogenized using 75 strokes of a glass dounce homogenizer using a tight-fitting pestle (Sigma, St. Louis, Mo., USA). Nuclei and undestroyed cells were removed by centrifugation at 220 g for 10 minutes at 4° C. The cell membrane in the thus-obtained supernatant was directly centrifuged at 68,000 g for 1 hour at 4° C. using an ultracentrifuge tube in a micro-ultracentrifuge (Hitachi, Japan). Upon centrifugation, the coarse replication complex fraction was recovered from the pellet and used for western blot analysis.
Example 14: Western Blot Analysis
Cell extracts were separated by SDS-PAGE and then transferred to a nitrocellulose membrane. After blocking, the membrane was incubated with indicated primary antibody and subsequently incubated with secondary antibody. The samples were detected with enhanced chemiluminescence reagents (Santa Cruz, Calif., USA).

[2] = system: STAT1, STAT2, IRF9, OAS1, and ISG15; assay: Real-time qRT-PCR of interferon-stimulated genes in HCV replicon cell; type: cell-based, human; details: 2 μM; FIG. 14
Method: (§1) Example 19: Real-Time Quantitative Reverse Transcriptase PCR Analysis
(§2) Real-time quantitative reverse transcriptase PCR (qRT-PCR) was performed using SYBR Green PCR Master Mix (Invitrogen/Applied Biosystem, Carlsbad, Calif., USA) and ABI Prism 7300 Real-time PCR System (Applied Biosystems, Carlsbad, Calif., USA) according to the manufacturer's instructions. Calculations were performed based on […] method using the following equation: R (ratio)=2-[ΔCT (sample)-ΔCT (control group)]. The data were expressed as fold change of the treated group relative to the control group and standardized relative to the glyceraldehyde 3-phosphate dehydrogenase (GAPDH) level.

HCV replicon cell [3] = assay: Combined treatment: MTT analysis in HCV replicon cell; type: cell-based, human
Method: Example 9: Analysis of Cytotoxicity
Cytotoxicity was analyzed in a 96-well plate using 5 mg/mL of MTT (3-(4,5-dimethylthiasol-2-yl)-2,5-diphenyltetrazolium bromide). The optical density of cells was measured at 550 nm using a microplate reader (Bio-Rad, Richmond, Calif., USA). Cell viability rate was expressed in percentage of the absorbance of treated cells relative to the absorbance of untreated cells.

IL-2 production = assay: IL-2 concentration by ELISA in splenocytes; type: cell-based, mouse; details: up to 10 μM; FIG. 9c
Method: Upon incubation, the cultures from three different wells were collected and IL-2 concentration was analyzed by ELISA according to the protocol by Enzo life Science (Plymouth Meeting, Pa., USA). IL-2 concentration was calculated based on the IL-2 standard solution.

CypA [4] = target: T1, CypA; assay: PPIase activity of CypA, coupled chymotrypsin analysis; type: biochemical
Method: Example 5: Analysis of Peptidyl-Prolyl Cis-Trans Isomerase Activity
The PPIase activity of CypA was determined according to a known method using the coupled chymotrypsin analysis.
The cis-trans isomerization was measured by absorbance at 390 nm in a spectrophotometer. Additionally, the remaining percentage of enzyme activity was measured at different concentrations of the inhibitor to calculate the 50% inhibition concentration (IC50) to the PPIase activity. Data was optimized via graphs by exporting using Graph Pad Prism 5.

HCV replicon cell [5] = assay: Combined treatment: HCV replicon RNA level by qRT-PCR, synergy analysis; type: cell-based, hepatitis C virus; details: in combination with telaprevir, IFN-α, or ribavirin vs. each alone; FIG. 16
Method: as §1, §2
Example 20: Synergy Analysis
In order to confirm whether the combination between NIM811 and IFN-α, ribavirin, or telaprevir is synergistic, additive, or antagonistic, the combination index (CI) was calculated using the CalcuSyn Software (Biosoft). In fact, the combination is additive when CI=1.0, synergistic when CI<1.0, and antagonistic when CI>1.0.

in vitro = type: cell-based, hepatitis C virus; details: genotype 2a JFH1; FIG. 11b
[6] = system: genotype 2a (JFH1) replication cells; assay: microbe, parasite or virus in culture; type: cell-based, hepatitis C virus; details: Hepatitis C virus

T1 sequence (P62937 whole entry): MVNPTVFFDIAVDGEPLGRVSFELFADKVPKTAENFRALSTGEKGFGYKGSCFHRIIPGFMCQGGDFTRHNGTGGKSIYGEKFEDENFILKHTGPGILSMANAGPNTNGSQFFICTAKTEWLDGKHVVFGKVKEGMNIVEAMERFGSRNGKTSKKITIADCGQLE
T2 sequence (P23284 34-216, species assumed): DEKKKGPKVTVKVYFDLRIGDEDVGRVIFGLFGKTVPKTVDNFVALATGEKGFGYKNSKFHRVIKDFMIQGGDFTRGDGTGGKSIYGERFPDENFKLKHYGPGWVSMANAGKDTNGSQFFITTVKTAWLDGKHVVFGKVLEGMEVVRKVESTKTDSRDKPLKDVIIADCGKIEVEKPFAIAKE

COc1cc(C(C(=O)NC2CCCCC2)N(C(=O)Cc2c[nH]c3ccccc23)c2ccc(C(C)C)cc2)cc(OC)c1OC (stereo not shown) [WJCPA-126, N-cyclohexyl-2-[(2-1H-indol-3-yl-acetyl)-(4-isopropyl-phenyl)-amino]-2-(3,4,5-trimethoxy-phenyl)-acetamide]
Koff (dissociation rate) (CypA [1]; SPR): 6.0×10^−4 S^−1 | Kon (CypA [1]; SPR): 8.2×10^3 M^−1 S^−1 | Kd (CypA [1]; SPR-based kinetic analysis, CypA): 0.52 µM | Kd (CypB): 2.1 µM | levels of NS5A and NS5B proteins (HCV replicon cells; 0.5 μM to 4 μM, FIG. 10a): decrease in the levels of NS5A and NS5B proteins in a dose-dependent manner | NS5A and NS5B protein levels in total lysate and membrane fraction (HCV replicon cells; 2 μM, HCV Con1b replicon cells, FIG. 10b): decrease the protein levels of NS5A and NS5B in both the total lysate and the membrane fraction | mRNA expression levels of STAT1, STAT2, IRF9, OAS1, and ISG15 [2]: increase the mRNA expression levels of STAT1, STAT2, IRF9, OAS1, and ISG15 in a time-dependent manner | cytotoxicity in combined treatment (HCV replicon cell [3]; in combination with IFN-α, RBV, or telaprevir, FIG. 16a): did not show any noticeable cytotoxicity | cell viability in combined treatment (HCV replicon cell [3]; in combination with interferon-α, ribavirin, or telaprevir): ≥ 80% | ionomycin-induced IL-2 production (IL-2 production): did not show any inhibitory activity | inhibitory effect against the PPIase activity of CypA (CypA [4]; 1 μM, 20 nM CypA, FIG. 3a): strong inhibitory effect | IC50 (CypA [4]; FIG. 3b, read-out: IC50 PPIase activity): 0.0035 µM | IC50 (CypA [4]; FIG. 7a, read-out: IC50 PPIase activity of CypA): 0.0036 µM | levels of HCV-specific RNA and IL-8 in combined treatment (HCV replicon cell [5]): synergistic decrease | CC50 (in vitro): 22.3 ± 4.23 µM | EC50 [6]: 1.1 ± 0.05 µM
